Laboratory results reported in paper PMC8708875 (Pharmaceutics, 2021).

Key:
Assay type in all cases: cell-based, mouse
[1] = system: Akt phosphorylation (pAkt, S473); assay: Akt phosphorylation by Western blotting in differentiated C2C12 cells; conditions: peptides 100 µM, insulin 100 nM, Western blot, three independent experiments
Description: C2C12 cells were used as a well-described model of skeletal muscle to evaluate the effect of peptides in gene expression, cell signaling, and glucose uptake. These cells were kindly provided by Prof. Patricia Brum, School of Physical Education and Prof. Anselmo Moriscot, Biomedical Science Institute, University of São Paulo, São Paulo, Brazil. C2C12 cells were cultured and maintained in high glucose Dulbecco’s modified Eagle’s medium (DMEM; Thermo Fisher Scientific, São Paulo, SP, Brazil) supplemented with 10% fetal bovine serum (FBS), 100 U/mL penicillin, and […] streptomycin in a humidified atmosphere of 5% CO2 at 37 °C. The cells were used in low pass (between passages 2 and 4) for all experiments to maintain the potential for differentiation of cultures. […]
Western blotting experiments were performed to evaluate the expression levels of specific proteins. […] Western blot bands were visualized with Super-Signal West Pico Chemiluminescent substrate (Thermo Scientific) using the ChemiDoc™ MP Imaging System (BioRad, Hercules, CA, USA), and quantified using ImageJ 1.49 software. All results are expressed as the means ± standard error of the mean (SEM). […] Data were statistically analyzed with GraphPad Prism software (GraphPad Software Inc, San Diego, CA, USA). […]

[2] = system: differentiated C2C12 cells; assay: Glucose uptake in C2C12 myotubes; conditions: peptides 100 µM, insulin 100 nM; 30 min, 37 °C; 3H-glucose (1 µCi/mL) or 2-NBDG (80 µM)
[3] = system: epididymal adipose tissue explants; assay: Glucose uptake in epididymal adipose tissue explants; conditions: Ric4 100 µM, insulin 100 nM; 3H-deoxyglucose 1 µCi/mL, Krebs-Ringer bicarbonate buffer, 37 °C
Description: Glucose uptake was evaluated in adipose tissue explants from mice bearing or not deletion of insulin receptor in adipocytes essentially as previously described. Briefly, explants of epididymal adipose tissue (20–25 mg) were incubated in 1 mL of Krebs–Ringer bicarbonate buffer (in mmol/L): 118 NaCl, 4.8 KCl, 1.25 CaCl2, 1.2 KH2PO4, 1.2 MgSO4, 25 NaHCO3, and 5.5 glucose and 1 μCi/mL of ^3H-deoxyglucose (New England Radiochemicals, Boston, MA, USA) supplemented with 2% fatty acid-free BSA (Sigma, Oakville, ON, Canada), 7.4. Vials were incubated at 37 °C for […] in the presence or absence of insulin (100 nM) or Ric4 peptide (100 µM). After 30 min, explants were extensively washed and processed to evaluate the uptake of ^3H deoxyglucose as previously described.
Figure 4 Glucose uptake and GLUT4 translocation induced by Ric4 in C2C12 cells. C2C12 cells were previously incubated in serum-free and glucose-free DMEM medium, then incubated with HEPES buffer for 30 min and then incubated for a further 30 min in glucose-uptake buffer containing vehicle, Ric4 (100 µM), or insulin (100 nM) in the presence of ^3H-glucose (1 µCi/mL) or 2-NBDG (80 µM). After incubations cells were lysed with 50 μL of 0.1 N NaOH and fluorescence or radiation of aliquots from the lysate were measured (A). Epididymal adipose tissue explants (20–25 mg) were incubated in Krebs–Ringer bicarbonate buffer containing glucose 5.5 mM and 1 μCi/mL of ^3H-deoxyglucose supplemented with 2% fatty acid-free for 30 min at 37 °C in the presence or absence of insulin (100 nM) or Ric4 (100 µM). The explants were processed to evaluate the uptake of ^3H-deoxyglucose (B). Myotubes were previously incubated in serum-free and glucose-free DMEM medium and then treated with control vehicle PBS or Ric4 (100 µM) for 30 min. Proteins from subcellular fractions: N/ER (C), microsomal (D), plasma membrane (E), were isolated and the expression Glut4 was analyzed by Western blot. Images were quantified using ImageJ 1.49 software. The statistical comparisons were performed using analysis of variance (ANOVA), followed by ad-hoc Tukey’s test using GraphPad Prism software * p < 0.05; # p < 0.05; **** p < 0.0001.

[4] = system: differentiated C2C12 myotubes; assay: qPCR gene expression in differentiated C2C12 myotubes; conditions: Ric peptides 100 µM, insulin positive control, qPCR normalised to GAPDH, control = 1, mean ± SEM

Substance	phosphorylation of Akt (pAkt over total Akt) [1]	glucose uptake in differentiated C2C12 cells [2]	glucose uptake in adipose tissue explants from C57BL6N WT mice [3]	glucose uptake in adipose tissue explants from conditional knockout mice depleted from insulin receptor [3]	relative expression of Myosin, light chain 1 (MYL1) [4]
LASVSTVLTSKYR [Ric4, intracellular peptide derived from hemoglobin alpha subunit, last 13 C-terminal amino acids]	activated	stimulate glucose uptake	stimulate glucose uptake	neither insulin nor Ric4 were capable of inducing glucose uptake	3.58 ± 1.07
Insulin	increased	stimulate glucose uptake	stimulate glucose uptake	neither insulin nor Ric4 were capable of inducing glucose uptake	6.18 ± 1.07
